# According to patent US8937065B2, “Compositions and methods for modulating a kinase” (Clevexel Pharma, priority 2011, dated 2015):
# Columns and labels:
# [1] = Solubility, turbidity; format: physicochemical; conditions: kinetic from dmso stock
# [2] = system: NF-kB pathway, THP-1 cells; experiment: NFkB-NFkB-bla THP-1 screen; conditions: Homo sapiens, read-out: IC50 Cell-based selectivity: NF-kB pathway THP-1 cells
# Experimental: Mechanism-based inhibition assays using compound 7A (Table 1) were performed using GeneBLAzer® Technology (Invitrogen Corporation), according to manufacturer specifications. Briefly, GeneBLAzer® Technology uses a mammalian-optimized Beta-lactamase reporter gene (bla) combined with a FRET-enabled substrate to provide reliable and sensitive detection in intact cells. Cells were loaded with an engineered fluorescent substrate containing two fluorophores, coumarin and fluorescein. Without bla expression, the substrate molecule remains intact. In this state, excitation of the coumarin results in fluorescence resonance energy transfer to the fluorescein moiety and emission of green light. But when bla is expressed, the substrate is cleaved, the fluorophores are separated, and energy transfer is disrupted. Excitation of the coumarin in the presence of Beta-lactamase activity results in a blue fluorescence signal. […]
# General Activator Assay Protocol • 1. […] The assay, plate was read on a fluorescence plate reader (Tecan Safire^2) and the data is analyzed.
# NFkB-bla THP-1 cells were thawed and resuspended in Assay Media (RPMI, 10% dialyzed FBS, 0.1 mM NEAA, 1 mM Sodium Pyruvate, 100 U/mL/100 μg/mL Pen/Strep) to a concentration of 625,000 cells/mL. […] The plate was read on a fluorescence plate reader.
# [3] = system: B-cell lymphoma (Daudi cell line) xenograft; experiment: Mouse xenograft study with B-cell lymphoma (Daudi cell line); format: in vivo; conditions: 28 days, Balb/c nude mice
# Experimental: The anti-tumor effect of compounds of the invention can be evaluated in vivo. For example, the anti-tumor effect of compound 7A was determined using a mouse xenograft study with B-cell lymphoma (Daudi cell line). Mice (n=8 all) were administered compound 7A over a period of 28 days. The compound was dosed at 100 mg/kg IP QD and 300 mg/kg PO QD. Tumor volume was measured over time.
# The Daudi cell line culture was prepared using Daudi cell line (ATCC, USA), RPMI 1640 medium (Invitrogen, USA), and FBS (Invitrogen, Australia). […]
# The mice were weighed at each dosing and recorded every day. Tumor size was measured every other day in two dimensions using a caliper, and the volume was expressed in mm^3 using the formula: V=0.5 a×b^2 where a and b were the long and short diameters of the tumor, respectively. […] Tumor volume, weight of dissected tumors, and mouse body weight were measured and recorded. […]
# The difference between the mean values of tumor volume in treated and vehicle groups was analyzed for significance using one way ANOVA test at each time point after log transformation. The difference between the mean values of tumor weight in treated and vehicle groups was analyzed for significance using t-test. […]
smiles,measurement,setting,value
"O=C(CN1CCOCC1)Nc1cccc(-c2nc(-c3c[nH]c(C(=O)N4CCCC4)c3)cs2)c1 [7A, 2-morpholino-N-(3-(4-(5-(pyrrolidine-1-carbonyl)-1H-pyrrol-3-yl)thiazol-2-yl)phenyl)acetamide]",solubility,[1],60 to 80 µM
same,IC50,[2],40.8 µM
same,tumor growth inhibition,[3]; 100 mg/kg IP QD,89%
same,tumor growth inhibition,[3]; 300 mg/kg PO QD,87%
